{"source": "ChEMBL document CHEMBL1201862", "about": "“PubChem BioAssay data set” (2004)", "key": {"Cytochrome P450 2C9 [1]": {"molecular_target": "T1, Cytochrome P450 2C9 (Homo sapiens, UniProt P11712)", "T1 sequence (P11712 whole entry)": "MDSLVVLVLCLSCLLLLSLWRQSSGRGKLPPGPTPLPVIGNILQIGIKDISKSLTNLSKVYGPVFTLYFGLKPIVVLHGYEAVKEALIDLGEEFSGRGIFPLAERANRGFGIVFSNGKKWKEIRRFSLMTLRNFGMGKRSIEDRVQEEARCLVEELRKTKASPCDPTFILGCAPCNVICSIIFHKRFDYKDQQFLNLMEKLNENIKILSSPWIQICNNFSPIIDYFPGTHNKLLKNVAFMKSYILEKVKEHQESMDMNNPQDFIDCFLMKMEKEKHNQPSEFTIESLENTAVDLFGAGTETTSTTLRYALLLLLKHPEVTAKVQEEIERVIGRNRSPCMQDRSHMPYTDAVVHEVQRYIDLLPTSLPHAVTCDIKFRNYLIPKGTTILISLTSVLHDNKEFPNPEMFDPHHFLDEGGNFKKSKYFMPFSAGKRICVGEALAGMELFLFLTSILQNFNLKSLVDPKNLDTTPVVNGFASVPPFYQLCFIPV"}, "Cytochrome P450 2D6": {"molecular_target": "Cytochrome P450 2D6 (Homo sapiens, UniProt P10635)", "sequence (P10635 whole entry)": "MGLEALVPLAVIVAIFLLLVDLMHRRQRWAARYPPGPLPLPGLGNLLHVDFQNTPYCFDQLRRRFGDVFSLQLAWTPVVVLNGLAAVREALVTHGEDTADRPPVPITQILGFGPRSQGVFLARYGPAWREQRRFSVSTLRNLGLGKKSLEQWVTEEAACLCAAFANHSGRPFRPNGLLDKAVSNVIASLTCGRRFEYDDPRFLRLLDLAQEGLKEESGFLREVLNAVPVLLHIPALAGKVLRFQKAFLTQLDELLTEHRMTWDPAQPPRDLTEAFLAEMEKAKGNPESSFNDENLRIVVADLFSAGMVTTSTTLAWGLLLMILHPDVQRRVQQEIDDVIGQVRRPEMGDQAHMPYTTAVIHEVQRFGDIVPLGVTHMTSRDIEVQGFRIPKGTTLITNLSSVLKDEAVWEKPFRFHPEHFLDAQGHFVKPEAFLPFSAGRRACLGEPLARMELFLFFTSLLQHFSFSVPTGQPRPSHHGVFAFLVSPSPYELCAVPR"}, "Cytochrome P450 1A2": {"molecular_target": "T2, Cytochrome P450 1A2 (Homo sapiens, UniProt P05177)", "T2 sequence (P05177 whole entry)": "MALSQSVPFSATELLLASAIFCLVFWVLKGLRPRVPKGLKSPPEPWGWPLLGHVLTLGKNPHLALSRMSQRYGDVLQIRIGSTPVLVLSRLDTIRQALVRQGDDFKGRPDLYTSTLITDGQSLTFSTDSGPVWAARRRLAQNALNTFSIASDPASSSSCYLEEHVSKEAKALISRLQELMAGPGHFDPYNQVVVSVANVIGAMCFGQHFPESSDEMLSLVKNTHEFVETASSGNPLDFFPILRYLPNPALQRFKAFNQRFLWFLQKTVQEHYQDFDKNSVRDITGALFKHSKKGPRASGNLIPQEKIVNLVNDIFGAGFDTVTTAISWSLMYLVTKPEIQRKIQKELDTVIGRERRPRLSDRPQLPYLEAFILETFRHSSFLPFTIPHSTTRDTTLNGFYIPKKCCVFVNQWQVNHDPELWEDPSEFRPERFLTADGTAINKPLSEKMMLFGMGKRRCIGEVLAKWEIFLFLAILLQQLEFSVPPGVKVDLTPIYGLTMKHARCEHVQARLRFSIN"}, "Cytochrome P450 3A4": {"molecular_target": "Cytochrome P450 3A4 (Homo sapiens, UniProt P08684)", "sequence (P08684 whole entry)": "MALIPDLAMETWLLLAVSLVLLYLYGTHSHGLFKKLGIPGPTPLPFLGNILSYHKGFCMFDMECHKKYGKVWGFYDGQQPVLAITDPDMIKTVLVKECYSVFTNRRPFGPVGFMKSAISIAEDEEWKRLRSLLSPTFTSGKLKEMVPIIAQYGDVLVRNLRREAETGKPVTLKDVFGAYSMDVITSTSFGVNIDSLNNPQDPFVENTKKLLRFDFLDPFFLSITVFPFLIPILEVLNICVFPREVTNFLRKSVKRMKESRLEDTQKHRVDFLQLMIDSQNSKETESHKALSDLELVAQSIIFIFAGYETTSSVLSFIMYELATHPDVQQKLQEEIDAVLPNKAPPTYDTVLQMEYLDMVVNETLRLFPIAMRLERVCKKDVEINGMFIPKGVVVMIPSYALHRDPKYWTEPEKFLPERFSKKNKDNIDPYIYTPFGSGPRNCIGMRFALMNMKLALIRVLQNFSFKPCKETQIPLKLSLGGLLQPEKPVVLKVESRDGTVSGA"}, "Aminopeptidase N": {"molecular_target": "T3, Aminopeptidase N (Plasmodium falciparum FcB1/Columbia, UniProt O96935)", "T3 sequence (O96935 whole entry)": "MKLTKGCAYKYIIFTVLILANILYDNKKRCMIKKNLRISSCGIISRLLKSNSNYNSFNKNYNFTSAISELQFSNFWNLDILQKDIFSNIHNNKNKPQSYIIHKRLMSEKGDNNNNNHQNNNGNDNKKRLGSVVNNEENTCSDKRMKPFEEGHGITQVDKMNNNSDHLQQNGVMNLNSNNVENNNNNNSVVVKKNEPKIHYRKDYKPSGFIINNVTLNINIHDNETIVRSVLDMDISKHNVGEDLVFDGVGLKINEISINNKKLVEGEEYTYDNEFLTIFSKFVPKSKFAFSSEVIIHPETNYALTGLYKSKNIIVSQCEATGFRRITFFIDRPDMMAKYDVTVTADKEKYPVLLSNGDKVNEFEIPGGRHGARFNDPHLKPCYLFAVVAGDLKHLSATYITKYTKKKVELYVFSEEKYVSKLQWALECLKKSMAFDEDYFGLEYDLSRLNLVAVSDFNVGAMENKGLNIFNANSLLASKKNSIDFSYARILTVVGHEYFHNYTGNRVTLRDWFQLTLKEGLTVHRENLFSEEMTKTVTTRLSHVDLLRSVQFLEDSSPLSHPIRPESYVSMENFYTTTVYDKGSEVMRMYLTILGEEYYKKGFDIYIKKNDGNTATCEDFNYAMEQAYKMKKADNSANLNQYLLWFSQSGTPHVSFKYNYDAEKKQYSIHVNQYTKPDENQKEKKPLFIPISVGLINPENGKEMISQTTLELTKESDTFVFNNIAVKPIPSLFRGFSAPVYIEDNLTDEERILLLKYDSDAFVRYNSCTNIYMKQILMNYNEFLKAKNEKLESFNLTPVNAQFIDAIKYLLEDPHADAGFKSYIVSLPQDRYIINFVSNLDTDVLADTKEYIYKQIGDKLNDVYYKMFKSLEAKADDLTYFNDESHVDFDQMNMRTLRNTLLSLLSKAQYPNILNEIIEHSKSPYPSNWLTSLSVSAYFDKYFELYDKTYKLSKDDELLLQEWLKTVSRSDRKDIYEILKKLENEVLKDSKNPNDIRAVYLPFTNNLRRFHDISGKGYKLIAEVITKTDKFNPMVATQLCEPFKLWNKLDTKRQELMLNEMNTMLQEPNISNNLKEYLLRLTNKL", "test": "malaria alanyl aminopeptidase activity blockers – biochemical, fluorogenic H-Leu-NHMec substrate, 1536-well (AID 1445)", "parameters": "species or system Plasmodium falciparum 3D7, 3D7"}, "Genome polyprotein": {"molecular_target": "Genome polyprotein (dengue virus type 2, UniProt P29990)", "sequence (P29990 2492-3391 limits assumed)": "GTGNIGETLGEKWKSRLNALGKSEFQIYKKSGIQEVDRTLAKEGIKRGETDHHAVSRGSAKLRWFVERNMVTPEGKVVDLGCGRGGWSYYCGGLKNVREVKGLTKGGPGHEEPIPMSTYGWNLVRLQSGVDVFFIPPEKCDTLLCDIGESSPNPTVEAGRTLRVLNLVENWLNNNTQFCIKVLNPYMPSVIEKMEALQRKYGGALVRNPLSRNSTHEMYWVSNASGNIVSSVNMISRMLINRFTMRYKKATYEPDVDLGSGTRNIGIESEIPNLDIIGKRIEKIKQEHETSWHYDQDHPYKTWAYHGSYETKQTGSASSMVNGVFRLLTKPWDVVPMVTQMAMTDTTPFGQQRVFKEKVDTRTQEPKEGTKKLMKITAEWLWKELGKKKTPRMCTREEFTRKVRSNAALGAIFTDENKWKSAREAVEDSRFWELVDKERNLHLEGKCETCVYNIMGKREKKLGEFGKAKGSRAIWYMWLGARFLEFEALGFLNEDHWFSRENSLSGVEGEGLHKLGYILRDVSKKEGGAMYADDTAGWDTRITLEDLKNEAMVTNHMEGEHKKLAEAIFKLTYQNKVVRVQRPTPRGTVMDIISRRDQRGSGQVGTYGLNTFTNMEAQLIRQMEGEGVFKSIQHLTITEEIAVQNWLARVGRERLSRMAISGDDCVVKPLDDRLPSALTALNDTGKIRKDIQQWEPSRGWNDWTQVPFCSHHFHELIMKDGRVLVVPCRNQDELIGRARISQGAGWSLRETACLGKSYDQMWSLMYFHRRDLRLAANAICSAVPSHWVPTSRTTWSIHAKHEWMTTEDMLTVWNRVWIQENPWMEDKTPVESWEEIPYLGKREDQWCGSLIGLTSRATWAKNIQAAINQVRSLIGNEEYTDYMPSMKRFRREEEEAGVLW", "test": "flavivirus cap methylation enzyme inhibition – biochemical, confirmation dose response, primary screen (AID 588689)", "type": "functional"}, "[2]": {"molecular_target": "T4, Rac GTPase-activating protein 1 (Homo sapiens, UniProt Q9H0H5)", "T4 sequence (Q9H0H5 whole entry)": "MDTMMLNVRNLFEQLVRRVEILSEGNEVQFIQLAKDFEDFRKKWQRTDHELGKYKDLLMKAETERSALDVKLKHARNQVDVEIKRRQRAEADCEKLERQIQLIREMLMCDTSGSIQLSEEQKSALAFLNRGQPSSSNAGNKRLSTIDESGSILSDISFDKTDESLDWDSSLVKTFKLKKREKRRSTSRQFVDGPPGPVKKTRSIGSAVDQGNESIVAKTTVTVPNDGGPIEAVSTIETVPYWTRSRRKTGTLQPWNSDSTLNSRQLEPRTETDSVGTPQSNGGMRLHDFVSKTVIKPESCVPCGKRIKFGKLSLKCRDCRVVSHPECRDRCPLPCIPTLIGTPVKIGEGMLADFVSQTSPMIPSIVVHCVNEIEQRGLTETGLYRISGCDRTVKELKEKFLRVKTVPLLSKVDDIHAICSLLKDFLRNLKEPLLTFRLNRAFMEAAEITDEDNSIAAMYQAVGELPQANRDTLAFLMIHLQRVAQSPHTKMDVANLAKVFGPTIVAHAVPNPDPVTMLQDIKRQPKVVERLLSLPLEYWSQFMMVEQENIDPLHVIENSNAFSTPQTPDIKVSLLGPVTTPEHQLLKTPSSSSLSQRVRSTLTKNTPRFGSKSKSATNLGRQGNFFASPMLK", "test": "blockers of MgcRacGAP-driven Rac1 GTP hydrolysis – biochemical, ADP Hunter fluorescence, primary and confirmatory, confirmation (AID 624330)", "type": "functional"}, "Cytochrome P450 2C9 [3]": {"molecular_target": "T1, Cytochrome P450 2C9", "remark": "listed apart in the source"}, "Cytochrome P450 2C19": {"molecular_target": "Cytochrome P450 2C19 (Homo sapiens, UniProt P33261)", "sequence (P33261 whole entry)": "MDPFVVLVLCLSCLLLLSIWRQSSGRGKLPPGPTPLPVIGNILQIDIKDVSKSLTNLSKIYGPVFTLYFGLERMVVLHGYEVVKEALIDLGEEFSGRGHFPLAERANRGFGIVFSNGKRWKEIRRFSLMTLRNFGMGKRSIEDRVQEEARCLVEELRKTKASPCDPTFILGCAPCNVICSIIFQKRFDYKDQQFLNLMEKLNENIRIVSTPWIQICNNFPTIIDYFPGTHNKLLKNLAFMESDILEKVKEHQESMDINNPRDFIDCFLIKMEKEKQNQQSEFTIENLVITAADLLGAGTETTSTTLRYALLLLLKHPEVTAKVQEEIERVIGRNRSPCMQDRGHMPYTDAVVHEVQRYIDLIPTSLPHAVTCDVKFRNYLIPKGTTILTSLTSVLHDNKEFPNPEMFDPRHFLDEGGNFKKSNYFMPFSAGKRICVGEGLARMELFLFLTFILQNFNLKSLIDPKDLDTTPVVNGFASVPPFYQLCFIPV", "test": "Cytochrome panel assay with activity outcomes. Panel member name: p450-cyp2c19 Compounds with AC50 equal or less than 10 uM are considered active", "type": "functional", "details": "read-out: AC50"}}, "note": "Active and inactive are the calls of the source.", "data": [{"smiles": "O=C(N/N=C1\\CCCc2ccccc21)c1ccc([N+](=O)[O-])cc1Cl", "values": [{"measurement": "AC50", "setting": "Cytochrome P450 2C9 [1]", "value": "inconclusive"}]}, {"smiles": "CC(C)(C)NC(=O)C(Cc1ccccc1)NS(=O)(=O)c1ccc2c(c1)CCC(=O)N2", "note": "(stereo not given)", "values": [{"measurement": "AC50", "setting": "Cytochrome P450 2D6", "value": "12.6 µM (inconclusive)"}, {"measurement": "AC50", "setting": "Cytochrome P450 2C9 [1]", "value": "inconclusive"}]}, {"smiles": "Cc1nc(S(=O)(=O)c2cccc(Cl)c2)nc2c1CCC2", "values": [{"measurement": "AC50", "setting": "Cytochrome P450 1A2", "value": "12.6 µM (inconclusive)"}, {"measurement": "AC50", "setting": "Cytochrome P450 2C9 [1]", "value": "inconclusive"}]}, {"smiles": "CN1[C@@H]2CC[C@H]1CC(O[C@@H](c1ccccc1)c1ccccc1N)C2", "note": "(stereo not given in full)", "values": [{"measurement": "AC50", "setting": "Cytochrome P450 3A4", "value": "12.6 µM (inconclusive)"}, {"measurement": "AC50", "setting": "Cytochrome P450 2D6", "value": "25.1 µM (inconclusive)"}, {"measurement": "AC50", "setting": "Cytochrome P450 1A2", "value": "15.8 µM (inconclusive)"}, {"measurement": "AC50", "setting": "Cytochrome P450 2C9 [1]", "value": "inconclusive"}]}, {"smiles": "COc1ccc2cc(C#N)c(SCC(=O)N3CCCC3)nc2c1", "values": [{"measurement": "IC50", "setting": "Aminopeptidase N", "value": "55.7 µM (active)"}]}, {"smiles": "Cc1ccc(S(=O)(=O)NN2C(=O)/C(=C/c3cccs3)SC2=S)cc1", "values": [{"measurement": "IC50", "setting": "Genome polyprotein", "value": "35.3 µM (active)"}, {"measurement": "IC50", "setting": "Aminopeptidase N", "value": "30.9 µM (active)"}]}, {"smiles": "CCOc1ccc(NC(=O)CCNS(=O)(=O)c2ccc3c(c2)c(=O)n(C)c(=O)n3C)cc1", "values": [{"measurement": "AC50", "setting": "Cytochrome P450 1A2", "value": "2.51 µM (inconclusive)"}, {"measurement": "AC50", "setting": "Cytochrome P450 2C9 [1]", "value": "inconclusive"}]}, {"smiles": "Cc1c(NC(=S)N/N=C/c2ccc(O)cc2)c(=O)n(-c2ccccc2)n1C", "values": [{"measurement": "IC50", "setting": "[2]", "value": "55.6 µM (active)"}, {"measurement": "AC50", "setting": "Cytochrome P450 2C9 [1]", "value": "inconclusive"}]}, {"smiles": "COC(=O)c1ccccc1NC(=O)c1ccc(COc2ccc(C)c(C)c2)o1", "values": [{"measurement": "AC50", "setting": "Cytochrome P450 3A4", "value": "1.41 µM (inconclusive)"}, {"measurement": "AC50", "setting": "Cytochrome P450 2C9 [1]", "value": "inconclusive"}]}, {"smiles": "N=C(N)NC(=O)Cc1c(Cl)cccc1Cl", "note": "[GUANFACINE]", "values": [{"measurement": "AC50", "setting": "Cytochrome P450 2C9 [3]", "value": "31.6 µM (inconclusive)"}, {"measurement": "AC50", "setting": "Cytochrome P450 2C9 [1]", "value": "inconclusive"}]}, {"smiles": "O=C(Nn1c(-c2ccccc2)nc2ccccc2c1=O)c1cccs1", "values": [{"measurement": "IC50", "setting": "Aminopeptidase N", "value": "51.1 µM (active)"}]}, {"smiles": "Cc1cc(C)cc(OCC(=O)Nc2ccc3c4c(cccc24)CC3)c1", "values": [{"measurement": "AC50", "setting": "Cytochrome P450 1A2", "value": "2.51 µM (inconclusive)"}, {"measurement": "AC50", "setting": "Cytochrome P450 2C9 [1]", "value": "inconclusive"}, {"measurement": "AC50", "setting": "Cytochrome P450 2C19", "value": "11.2 µM (inconclusive)"}]}, {"smiles": "CCOC(=O)COc1ccc(Br)cc1/C=C\\c1nc(O)nc(O)c1[N+](=O)[O-]", "values": [{"measurement": "IC50", "setting": "Aminopeptidase N", "value": "36.5 µM (active)"}]}]}
